Laboratory results from patent US10407467B2, “Polymyxin derivatives and their use in combination therapy together with different antibiotics” (priority 2013, dated 2019).

Assays:
Assay in all cases: MIC, sole activity (no second agent)
Type in all cases: cell-based
Conditions in all cases: Table 6A; no second agent; different supplier of Cation-adjusted MHB
Klebsiella pneumoniae = test system: Klebsiella pneumoniae
How it was run: (§1)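 Compound tested without a second agent in cation-adjusted MHB, up to four strains per species, inoculum at 0.5 McFarland from colonies grown 18-24 h on Mueller-Hinton agar. Run in duplicate, invalid beyond 2-fold disagreement, lower duplicate or modal repeat value given, expressed relative to Polymyxin B.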

Pseudomonas aeruginosa = test system: Pseudomonas aeruginosa
How it was run: as §1

Acinetobacter baumannii = test system: Acinetobacter baumannii
How it was run: as §1

Escherichia coli = test system: Escherichia coli
How it was run: as §1

Row | Substance | MIC K. pneumoniae ATCC 4352 (Klebsiella pneumoniae) [micrograms/mL] | MIC K. pneumoniae ATCC BAA-2146 (Klebsiella pneumoniae) [micrograms/mL] | MIC P. aeruginosa ATCC 27853 (Pseudomonas aeruginosa) [micrograms/mL] | MIC P. aeruginosa CCUG 59347 (Pseudomonas aeruginosa) [micrograms/mL] | MIC A. baumannii ATCC BAA-747 (Acinetobacter baumannii) [micrograms/mL] | MIC A. baumannii NCTC 13424 (Acinetobacter baumannii) [micrograms/mL] | MIC E. coli ATCC25922 (Escherichia coli) [micrograms/mL] | MIC E. coli NCTC 13441 (Escherichia coli) [micrograms/mL]
1 | D-Phe polymyxin B nonapeptide [Example A35] | 2 | 2 | 0.25 | 1 | 8 | 8 | 1 | 2
2 | D-Pro polymyxin B nonapeptide [Example A36] | 1 | 8 | 1 | 4 | 8 | 8 | 2 | 2
3 | L-Pro polymyxin B nonapeptide [Example A37] | >8 | >8 | 2 | >8 | >8 | >8 | >8 | >8
4 | Piperidine-1-ylethanoyl polymyxin B nonapeptide [Example A2] | 8 |  | 2 | 4 | >8 | >8 | 4 | >8
5 | Piperidine-2-carbonyl polymyxin B nonapeptide. Isomer 1 [Example A25] | 8 | >8 | 2 | 4 | >8 | 8 | >8 | >8
6 | Piperidine-2-carbonyl polymyxin B nonapeptide. Isomer 2 [Example A26] | 0.5 | 1 | 1 | 2 | 2 | 1 | 2 | 2
7 | [2-(RS)-(2-Hydroxy-2- cyclohexyl)ethanoyl]-L-Thr- L-Dap-polymyxin B heptapeptide [Example A4] | 2 |  | 2 | 2 | >8 | >8 | 1 | 4
8 | [3(R,S)-3-Amino-3- cyclohexanepropanoyl]-Gly- polymyxin B nonapeptide [Example A7] | >8 |  | 1 | >8 | 4 | 8 | >8 | >8
9 | [3(R,S)-3-Amino-3- cyclohexanepropanoyl]-L- Arg- polymyxin B nonapeptide [Example A23] | >8 | >8 | 8 | >8 | 2 | 4 | >8 | >8
10 | [3(R,S)-3-Amino-3- cyclohexanepropanoyl]-L- Dab-L-Thr-L-Dap polymyxin B heptapeptide [Example A10] | 0.5 |  | 0.25 | 0.25 | 2 | 2 | 1 | 1
11 | [3(R,S)-3-Amino-3- cyclohexanepropanoyl]-L- His- polymyxin B nonapeptide [Example A19] | 8 | 8 | 1 | 2 | 4 | 4 | 8 | 4
12 | [3(R,S)-3-Amino-3- cyclohexanepropanoyl]-L- Phe- polymyxin B nonapeptide isomer 1 [Example A20] | >8 | >8 | >8 | >8 | >8 | >8 | >8 | >8
13 | [3(R,S)-3-Amino-3- cyclohexanepropanoyl]-L- Phe- polymyxin B nonapeptide isomer 2 [Example A21] | >8 | >8 | >8 | >8 | >8 | >8 | >8 | >8
14 | [3(R,S)-3-Amino-3- cyclohexanepropanoyl]-L- Pro- polymyxin B nonapeptide isomer 1 [Example A8] | >8 |  | 2 | 4 | >8 | >8 | >8 | >8
15 | [3(R,S)-3-Amino-3- cyclohexanepropanoyl]-L- Pro- polymyxin B nonapeptide isomer 2 [Example A9] | >8 |  | 2 | >8 | >8 | >8 | >8 | >8
16 | [3(R,S)-3-Amino-3- cyclohexanepropanoyl]-L- Ser- polymyxin B nonapeptide [Example A11] | 8 |  | 1 | 2 | 4 | 4 | >8 | 8
17 | [3(R,S)-3-Amino-3- cyclohexanepropanoyl]-L- Tyr- polymyxin B nonapeptide [Example A27] | >8 | >8 |  | 4 | 8 | >8 | >8 | >8
18 | [3(R,S)-3-Amino-3- cyclohexanepropanoyl]-[4R- 4-hydroxy-L-Pro]-polymyxin B nonapeptide [Example A12] | >8 |  | 2 | 4 | 8 | 8 | >8 | >8
